“Also recorded” adds a separate entry of the source.
Columns and labels:
human dopamine D3R = human dopamine D3R (Homo sapiens (Human), UniProt P35462); experiment: D3R mitogenesis assay: stimulation or inhibition of quinpirole-stimulated mitogenesis in CHO cells; format: cell-based; conditions: Table 2a; inhibition of quinpirole-stimulated mitogenesis; read-out: Antagonist IC50 ± SEM
[1] = Phase I metabolic stability in rat liver microsomes; format: in vitro ADME; conditions: Rat liver microsomes
Text: Rat Liver Microsome Metabolic Stability: Test compounds including 3-F analogues (C4a, C4b, C5a, C5b) and 29, 19 as well as the R-, S-enantiomers of C4a, C5a, 29 and 19 were screened for phase I metabolic stability in rat liver microsomes.

Male Long-Evans rats [2] = experiment: Maintenance of oxycodone self-administration and oxycodone-seeking after oxycodone was replaced by saline; format: in vivo, rat; conditions: i.p.
Description: Four groups of rats (n=7/group) were first trained to self-administer oxycodone at a dose of 100 μg/kg/infusion for 2 weeks followed by 50 μg/kg/infusion for the rest of the training sessions and for the test session. The daily self-administration of oxycodone at the low dose continued until the average oxycodone infusions/session varied less than 10% over 3 consecutive sessions (normally 6-10 sessions were required to meet this criterion of stability). On the following test day, the groups of rats were first systemically injected with either vehicle or a dose of compound (±)-29 (5, 15 or 25 mg/kg, i.p.), and 15 min later, the animals were allowed to self-administer oxycodone.
Following completion of the self-administration testing, the rats continued to self-administer oxycodone (50 μg/kg/infusion) for additional 4 sessions. On the next day, the animals were re-assigned into 3 groups, and pretreated with either vehicle or 1 of the 2 doses of compound (±)-29 (5 or 15 mg/kg). Fifteen min later, the animals were placed in the chambers, and allowed to lever-press for an extinction session during which saline was substituted for […]. Other conditions remain the same as […] session.

Male Long-Evans rats [3] = experiment: Oxycodone-triggered reinstatement of drug-seeking behavior; format: in vivo, rat; conditions: 5-15 mg/kg, i.p., oxycodone priming 1 mg/kg
Description: For the three groups from Experiment 2, extinction sessions continued without drug treatment until the rats' average active lever-presses/session decreased to less than 10 responses over 3 consecutive sessions. On the following day, 2 groups of rats were first pretreated with 1 of 2 doses of compound (±)-29 (5 or 15 mg/kg) while another group with vehicle. Fifteen min following pretreatment, all the animals received a non-contingent injection of oxycodone priming (1 mg/kg, i.p.) and then were placed into the same operant chambers for another extinction session.

Male Long-Evans rats [4] = experiment: Hot plate test of oxycodone-induced antinociceptive response in rats; format: in vivo, rat
Description: Nociceptive tests were performed using a hot plate device (Model 39, IITC Life Science Inc., Woodland Hills, Calif., USA). The rat was put inside a transparent cage on the hot plate (52±0.2° C.). When thermal nociceptive signs such as licking, stomping the hind paw, or jumping from the plate appeared, the rat was immediately removed from the cage. […] The cut-off time for the test was 60 s to avoid tissue damage.
These experiments involved 8 groups of rats (n=8-9/group) in 2 series of repeated testing: 4 groups were used to test the effects of compound (±)-29 pretreatment on the time course of antinociception induced by oxycodone at a single dose, and another 4 groups were used to test the effects of compound (±)-29 pretreatment on the antinociception induced by various oxycodone doses. Each rat was first habituated to the testing environment for 1 h, followed by placement on the hot plate without treatment to obtain baseline response latencies. The groups in the time course test received baseline testing. Then, group 1 was pretreated with vehicle, and the other 3 groups were pretreated with a dose of compound (±)-29 (5, 15 or 25 mg/kg, i.p.). Fifteen min following the pretreatment, each rat was challenged with a saline injection (1 ml/kg) and, 30 min later, tested for the second time on the hot plate. On the next day, each group received the same pretreatment as on day 1, but challenged with oxycodone (2 mg/kg, i.p.), and each rat was then tested again at 30-, 60- and 120-min following oxycodone challenge. […] Data were calculated as % of maximum percentage effect (% MPE) using the formula: (treatment value−basal value)/(cutoff value−basal value)×100.
Methods: Compound (±)-29 was administered 15 minutes before saline or oxycodone challenge at 5 mg/kg, 15 mg/kg, and 25 mg/kg. […] The rat was then immediately removed from the hot plate and the time latency was recorded.

Chain of human dopamine D3R (P35462 whole entry): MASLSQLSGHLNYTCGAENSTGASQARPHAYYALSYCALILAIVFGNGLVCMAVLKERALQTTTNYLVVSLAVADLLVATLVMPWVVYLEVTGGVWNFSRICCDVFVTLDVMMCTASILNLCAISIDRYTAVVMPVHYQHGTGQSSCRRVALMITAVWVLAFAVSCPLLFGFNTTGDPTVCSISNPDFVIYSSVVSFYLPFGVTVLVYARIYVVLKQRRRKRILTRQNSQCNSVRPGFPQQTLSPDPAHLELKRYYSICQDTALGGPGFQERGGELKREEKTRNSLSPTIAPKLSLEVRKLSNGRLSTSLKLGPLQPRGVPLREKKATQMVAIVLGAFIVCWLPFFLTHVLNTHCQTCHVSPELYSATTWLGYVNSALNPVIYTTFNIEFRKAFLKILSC

Structure (SMILES): CCc1cc(Cl)c(OC)c(N2CCN(CC(O)CCNC(=O)c3cc4ccccc4[nH]3)CC2)c1 (racemic) [Compound 29, N-(4-(4-(3-chloro-5-ethyl-2-methoxyphenyl)piperazin-1-yl)-3-hydroxybutyl)-1H-indole-2-carboxamide]
- IC50 (human dopamine D3R): 360 ± 100 nM
- % at 0 min. ([1]; 0 min): 100%
- % at 30 min. ([1]; 30 min): 95%
- % at 60 min. ([1]; 60 min): 85%
- oxycodone infusions during maintenance of self-administration (Male Long-Evans rats [2]; 5-25 mg/kg): dose-dependently decreased oxycodone infusions; also recorded: dose-dependently reduced oxycodone self-administration
- oxycodone-seeking behavior (extinction responding) when saline was substituted for oxycodone (Male Long-Evans rats [2]; 5 or 15 mg/kg): dose-dependently inhibited oxycodone-seeking behavior; also recorded: dose-dependently reduced
- oxycodone-primed reinstatement of active lever-presses (Male Long-Evans rats [3]): dose-dependently blocked; also recorded: dose dependently reduced reinstatement to oxycodone seeking
- effect of pretreatment on oxycodone antinociception (% MPE), hot plate (Male Long-Evans rats [4]; 5-25 mg/kg i.p. pretreatment, oxycodone 0.5-4 mg/kg, effect at 25 mg/kg): significant elevation of MPE %; also recorded: potentiated the antinociceptive effects of oxycodone; also recorded: produced a leftward shift in the dose-response curve of oxycodone; also recorded: significantly potentiated oxycodone's effect
- thermal response 30 minutes following saline or oxycodone (2 mg/kg, i.p.) challenge (Male Long-Evans rats [4]; Example 6, 5, 15, 25 mg/kg, 15 minutes before challenge): no significant effects on animal's thermal response
